Assay results as given in patent EP1025097B1, “1-(2-NAPHTHYL) AND 1-(2-AZANAPHTHYL)-4-(1-PHENYLMETHYL)PIPERAZINES BEING DOPAMINE D 4? RECEPTOR SUBTYPE LIGANDS” (NEUROGEN CORPORATION, priority 1997, dated 1999).

molecular target: T1, D2 receptors (Chlorocebus aethiops, UniProt P52702); assay: Assay for D2 receptor binding activity (3H-YM 09151-2 displacement, COS cell pellets); design: species or system African Green monkey; conditions: recombinant receptor in COS cells; 0.5 nM 3H-YM 09151-2
T1 construct: expressed in transfected cells; host or cells: COS cells
T1 sequence (P52702 whole entry): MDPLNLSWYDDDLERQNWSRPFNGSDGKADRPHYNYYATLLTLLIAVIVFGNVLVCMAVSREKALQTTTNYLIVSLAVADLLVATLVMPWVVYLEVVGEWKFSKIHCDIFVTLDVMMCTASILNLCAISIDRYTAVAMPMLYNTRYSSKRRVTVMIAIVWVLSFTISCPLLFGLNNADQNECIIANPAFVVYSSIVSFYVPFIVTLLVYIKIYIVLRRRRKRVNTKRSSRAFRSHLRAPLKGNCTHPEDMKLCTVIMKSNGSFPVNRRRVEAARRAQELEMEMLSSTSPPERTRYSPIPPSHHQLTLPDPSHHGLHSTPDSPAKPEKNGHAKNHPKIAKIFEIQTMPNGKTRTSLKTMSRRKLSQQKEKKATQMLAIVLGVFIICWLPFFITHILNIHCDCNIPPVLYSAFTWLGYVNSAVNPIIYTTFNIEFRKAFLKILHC
Method: Pellets of COS cells containing recombinantly produced D2 or D4 receptors from African Green monkey are used for the assays. The sample is homogenized in 100 volumes (w/vol) of 0.05 M Tris HCl buffer at 4° C and pH 7.4. The sample is then centrifuged at 30,000 x g and resuspended and rehomogenized. The sample is again centrifuged as described above and the final tissue sample is frozen until use. The tissue is resuspended 1:20 (wt/vol) in 0.05 M Tris HCl buffer containing 100 mM NaCl.
Incubations are carried out at […] and contain 0.4 ml of tissue sample, 0.5 nM ^3H-YM 09151-2 (Nemonapride, cis-5-Chloro-2-methoxy-4-(methylamino)-N-(2-methyl-2-(phenylmethyl)-3-pyrrolidinyl)benzamide)and the compound of interest in a total incubation of 1.0 ml. Nonspecific binding is defined as that binding found in the presence of […] spiperone; without further additions, nonspecific binding is less than 20% of total binding. Binding characteristics for examples of compounds encompassed within Formulae II, III and V for the D2 and D4 receptor subtypes are shown in Table 2 for […].

Ki, > 4 µM:
Cc1ccc(CN2CCN(c3ccc4ccccc4n3)CC2)cc1 [Compound 2]
Clc1ccc(CN2CCN(c3cnc4ccccc4n3)CC2)cc1 [Compound 3]
Clc1ccc(CN2CCN(c3ccc4ccccc4c3)CC2)cc1 [Compound 6]
